{"source": "patent US20090239841A1", "about": "“Diaryl Ureas as CB1 Antagonists” (priority 2004, published 2009)", "data": [{"target": "T1, hCB1 (Homo sapiens, UniProt P21554)", "T1 construct": "made in house; host or cells: Sf9 insect cells (baculovirus), P2 membranes", "T1 sequence (P21554 whole entry)": "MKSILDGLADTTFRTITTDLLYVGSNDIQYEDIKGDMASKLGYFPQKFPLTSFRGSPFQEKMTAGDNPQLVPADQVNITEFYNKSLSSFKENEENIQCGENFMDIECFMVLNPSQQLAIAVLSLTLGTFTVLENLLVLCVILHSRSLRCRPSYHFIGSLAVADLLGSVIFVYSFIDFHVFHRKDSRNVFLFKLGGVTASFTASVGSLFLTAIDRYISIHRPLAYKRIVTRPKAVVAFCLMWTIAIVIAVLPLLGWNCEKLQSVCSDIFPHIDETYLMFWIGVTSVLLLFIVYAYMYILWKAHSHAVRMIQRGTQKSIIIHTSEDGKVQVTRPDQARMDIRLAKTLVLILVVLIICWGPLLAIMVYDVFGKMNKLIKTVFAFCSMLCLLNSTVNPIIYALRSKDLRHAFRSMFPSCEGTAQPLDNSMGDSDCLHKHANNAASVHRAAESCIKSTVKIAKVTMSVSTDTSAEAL", "assay": "Agonist-induced GTP binding (GTPγ35S) assay at CB1, Example 8", "assay_type": "biochemical", "conditions": "not given", "method_in_brief": "(§1)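 Antagonism read as inhibition of 1 nM CP55,940-stimulated GTPγ35S ([…]) binding, compounds at 10^−10 to 10^−5 M. Baculovirus-infected Sf9 membranes bearing hCB1 plus G-protein subunits, 60 min room-temperature incubation with 5 μM GDP. Filtration and scintillation counting; data as percent over basal.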", "units": {"IC50": "nM"}, "values": [{"smiles": "O=C(Nc1ccc(OC(F)F)cc1)Nc1ccnc(Cl)c1", "note": "[Compound 628, 1-(2-chloropyridin-4-yl)-3-[4-(difluoromethoxy)phenyl]urea]", "IC50": "< 2000"}]}, {"target": "T1, hCB1", "assay": "Agonist-induced GTP binding (GTPγ35S) assay at CB1, Example 8", "assay_type": "biochemical", "conditions": "IC50 at CB1, determined as described in Example 8; read-out: IC50", "method_in_brief": "as §1", "units": {"IC50": "nM"}, "values": [{"smiles": "COc1ccc(NC(=O)Nc2ccc(CC#N)cc2)cc1", "note": "[Compound 586, 1-[4-(cyanomethyl)phenyl]-3-(4-methoxyphenyl)urea]", "IC50": "< 2000"}, {"smiles": "CCOc1ccc(NC(=O)Nc2ccc(CC#N)cc2)cc1", "note": "[Compound 587, 1-[4-(cyanomethyl)phenyl]-3-(4-ethoxyphenyl)urea]", "IC50": "< 2000"}, {"smiles": "COc1cccc(NC(=O)Nc2ccc(OCC#N)cc2)c1", "note": "[Compound 588, 1-[4-(cyanomethoxy)phenyl]-3-(3-methoxyphenyl)urea]", "IC50": "< 2000"}, {"smiles": "COc1ccc(NC(=O)Nc2ccc(OCC#N)cc2)cc1", "note": "[Compound 589, 1-[4-(cyanomethoxy)phenyl]-3-(4-methoxyphenyl)urea]", "IC50": "< 2000"}, {"smiles": "CCOc1ccc(NC(=O)Nc2ccc(OCC#N)cc2)cc1", "note": "[Compound 590, 1-[4-(cyanomethoxy)phenyl]-3-(4-ethoxyphenyl)urea]", "IC50": "< 2000"}, {"smiles": "CCC(=O)c1ccc(NC(=O)Nc2cccc(OC)c2)cc1", "note": "[Compound 591, 1-(3-methoxyphenyl)-3-(4-propionylphenyl)urea]", "IC50": "< 2000"}, {"smiles": "CCOC(=O)c1ccc(NC(=O)Nc2cccc(OC)c2)cc1", "note": "[Compound 593, ethyl 4-({[(3-methoxyphenyl)amino]carbonyl}amino)benzoate]", "IC50": "< 2000"}, {"smiles": "CCOC(=O)c1ccc(NC(=O)Nc2ccc(OC)cc2)cc1", "note": "[Compound 594, ethyl 4-({[(4-methoxyphenyl)amino]carbonyl}amino)benzoate]", "IC50": "< 2000"}, {"smiles": "CCOC(=O)c1ccc(NC(=O)Nc2ccc(OCC)cc2)cc1", "note": "[Compound 595, ethyl 4-({[(4-ethoxyphenyl)amino]carbonyl}amino)benzoate]", "IC50": "< 2000"}, {"smiles": "CCOc1ccc(NC(=O)Nc2ccc(S(C)(=O)=O)cc2)cc1", "note": "[Compound 596, 1-(4-ethoxyphenyl)-3-[4-(methylsulfonyl)phenyl]urea]", "IC50": "< 2000"}, {"smiles": "COc1cccc(NC(=O)Nc2ccc(C(=O)OC(C)C)cc2)c1", "note": "[Compound 597, isopropyl 4-({[(3-methoxyphenyl)amino]carbonyl}amino)benzoate]", "IC50": "< 2000"}, {"smiles": "COc1ccc(NC(=O)Nc2ccc(C(=O)OC(C)C)cc2)cc1", "note": "[Compound 598, isopropyl 4-({[(4-methoxyphenyl)amino]carbonyl}amino)benzoate]", "IC50": "< 2000"}, {"smiles": "CCOc1ccc(NC(=O)Nc2ccc(C(=O)OC(C)C)cc2)cc1", "note": "[Compound 599, isopropyl 4-({[(4-ethoxyphenyl)amino]carbonyl}amino)benzoate]", "IC50": "< 2000"}, {"smiles": "N#CCOc1ccc(NC(=O)Nc2cccc([N+](=O)[O-])c2)cc1", "note": "[Compound 600, 1-[4-(cyanomethoxy)phenyl]-3-(3-nitrophenyl)urea]", "IC50": "< 2000"}, {"smiles": "CCOC(=O)c1ccc(NC(=O)Nc2ccc(C(C)C)cc2)cc1", "note": "[Compound 602, ethyl 4-({[(4-isopropylphenyl)amino]carbonyl}amino)benzoate]", "IC50": "< 2000"}, {"smiles": "CCN(CC)C(=O)c1ccccc1NC(=O)Nc1ccc(OC(F)F)cc1", "note": "[Compound 603]", "IC50": "< 2000"}, {"smiles": "CC(C)(C)c1ccccc1NC(=O)Nc1ccc(OC(F)F)cc1", "note": "[Compound 604, 1-(2-tert-butylphenyl)-3-[4-(difluoromethoxy)phenyl]urea]", "IC50": "< 2000"}, {"smiles": "O=C(Nc1ccc(OC(F)F)cc1)Nc1ccccc1Br", "note": "[Compound 605, 1-(2-bromophenyl)-3-[4-(difluoromethoxy)phenyl]urea]", "IC50": "< 2000"}, {"smiles": "Cc1ccc(NC(=O)Nc2ccc(OC(F)F)cc2)cc1F", "note": "[Compound 606, 1-[4-(difluoromethoxy)phenyl]-3-(3-fluoro-4-methylphenyl)urea]", "IC50": "< 2000"}, {"smiles": "Cc1ccc(NC(=O)Nc2ccc(OC(F)(F)F)cc2)cc1F", "note": "[Compound 607, 1-(3-fluoro-4-methylphenyl)-3-[4-(trifluoromethoxy)phenyl]urea]", "IC50": "< 2000"}, {"smiles": "Cc1cc(NC(=O)Nc2ccc(OC(F)F)cc2)ccc1F", "note": "[Compound 608, 1-[4-(difluoromethoxy)phenyl]-3-(4-fluoro-3-methylphenyl)urea]", "IC50": "< 2000"}, {"smiles": "O=C(Nc1ccc(OC(F)F)cc1)Nc1ccc(F)c(F)c1", "note": "[Compound 609, 1-[4-(difluoromethoxy)phenyl]-3-(3,4-difluorophenyl)urea]", "IC50": "< 2000"}, {"smiles": "O=C(Nc1ccc(OC(F)(F)F)cc1)Nc1ccc2c(c1)CCC2", "note": "[Compound 610, 1-(2,3-dihydro-1H-inden-5-yl)-3-[4-(trifluoromethoxy)phenyl]urea]", "IC50": "< 2000"}, {"smiles": "Cc1ccc(NC(=O)Nc2ccc(OC(F)F)cc2)cc1Cl", "note": "[Compound 611, 1-(3-chloro-4-methylphenyl)-3-[4-(difluoromethoxy)phenyl]urea]", "IC50": "< 2000"}, {"smiles": "Cc1cc(NC(=O)Nc2ccc(OC(F)F)cc2)ccc1Cl", "note": "[Compound 612, 1-(4-chloro-3-methylphenyl)-3-[4-(difluoromethoxy)phenyl]urea]", "IC50": "< 2000"}, {"smiles": "COc1cccc(NC(=O)Nc2ccc(C)c(F)c2)c1", "note": "[Compound 614, 1-(3-fluoro-4-methylphenyl)-3-(3-methoxyphenyl)urea]", "IC50": "< 2000"}, {"smiles": "COc1ccc(NC(=O)Nc2ccc(C)c(F)c2)cc1", "note": "[Compound 615, 1-(3-fluoro-4-methylphenyl)-3-(4-methoxyphenyl)urea]", "IC50": "< 2000"}, {"smiles": "CCOc1ccc(NC(=O)Nc2ccc(C)c(F)c2)cc1", "note": "[Compound 616, 1-(4-ethoxyphenyl)-3-(3-fluoro-4-methylphenyl)urea]", "IC50": "< 2000"}, {"smiles": "CCOc1ccc(NC(=O)Nc2ccc(F)c(C)c2)cc1", "note": "[Compound 617, 1-(4-ethoxyphenyl)-3-(4-fluoro-3-methylphenyl)urea]", "IC50": "< 2000"}, {"smiles": "CCOc1ccc(NC(=O)Nc2ccc(F)c(F)c2)cc1", "note": "[Compound 619, 1-(3,4-difluorophenyl)-3-(4-ethoxyphenyl)urea]", "IC50": "< 2000"}, {"smiles": "COc1ccc(NC(=O)Nc2ccc3c(c2)CCC3)cc1", "note": "[Compound 620, 1-(2,3-dihydro-1H-inden-5-yl)-3-(4-methoxyphenyl)urea]", "IC50": "< 2000"}, {"smiles": "COc1cccc(NC(=O)Nc2ccc(C)c(Cl)c2)c1", "note": "[Compound 621, 1-(3-chloro-4-methylphenyl)-3-(3-methoxyphenyl)urea]", "IC50": "< 2000"}, {"smiles": "COc1ccc(NC(=O)Nc2ccc(C)c(Cl)c2)cc1", "note": "[Compound 622, 1-(3-chloro-4-methylphenyl)-3-(4-methoxyphenyl)urea]", "IC50": "< 2000"}, {"smiles": "CCOc1ccc(NC(=O)Nc2ccc(Cl)c(C)c2)cc1", "note": "[Compound 623, 1-(4-chloro-3-methylphenyl)-3-(4-ethoxyphenyl)urea]", "IC50": "< 2000"}, {"smiles": "CCOc1ccc(NC(=O)Nc2ccc(Cl)c(Cl)c2)cc1", "note": "[Compound 624, 1-(3,4-dichlorophenyl)-3-(4-ethoxyphenyl)urea]", "IC50": "< 2000"}, {"smiles": "CCOc1ccc(NC(=O)Nc2ccc(Cl)c(C(F)(F)F)c2)cc1", "note": "[Compound 625, 1-[4-chloro-3-(trifluoromethyl)phenyl]-3-(4-ethoxyphenyl)urea]", "IC50": "< 2000"}, {"smiles": "Cc1ccc(NC(=O)Nc2ccc(C(C)C)cc2)cc1F", "note": "[Compound 626, 1-(3-fluoro-4-methylphenyl)-3-(4-isopropylphenyl)urea]", "IC50": "< 2000"}, {"smiles": "O=C(Nc1ccc(OC(F)F)cc1)Nc1cnccn1", "note": "[Compound 627, 1-[4-(difluoromethoxy)phenyl]-3-pyrazin-2-ylurea]", "IC50": "< 2000"}, {"smiles": "CCOc1ccc(NC(=O)Nc2ccc(Cl)nc2)cc1", "note": "[Compound 629, 1-(6-chloropyridin-3-yl)-3-(4-ethoxyphenyl)urea]", "IC50": "< 2000"}, {"smiles": "CC(C)c1ccc(NC(=O)Nc2ccc(Cl)nc2)cc1", "note": "[Compound 630, 1-(6-chloropyridin-3-yl)-3-(4-isopropylphenyl)urea]", "IC50": "< 2000"}, {"smiles": "O=C(Nc1ccc(OC(F)F)cc1)Nc1ccccn1", "note": "[Compound 631, 1-[4-(difluoromethoxy)phenyl]-3-pyridin-2-ylurea]", "IC50": "< 2000"}, {"smiles": "Cc1cccnc1NC(=O)Nc1ccc(OC(F)F)cc1", "note": "[Compound 632, 1-[4-(difluoromethoxy)phenyl]-3-(3-methylpyridin-2-yl)urea]", "IC50": "< 2000"}, {"smiles": "Cc1cccc(NC(=O)Nc2ccc(OC(F)F)cc2)n1", "note": "[Compound 633, 1-[4-(difluoromethoxy)phenyl]-3-(6-methylpyridin-2-yl)urea]", "IC50": "< 2000"}, {"smiles": "O=C(Nc1ccc(OC(F)F)cc1)Nc1ccc(Cl)cn1", "note": "[Compound 634, 1-(5-chloropyridin-2-yl)-3-[4-(difluoromethoxy)phenyl]urea]", "IC50": "< 2000"}, {"smiles": "CCc1ccc(NC(=O)Nc2ccc(C#N)cn2)cc1", "note": "[Compound 636, 1-(5-cyanopyridin-2-yl)-3-(4-ethylphenyl)urea]", "IC50": "< 2000"}, {"smiles": "CC(=O)c1ccc(NC(=O)Nc2ccc(Cl)nc2)cc1", "note": "[Compound 637, 1-(4-acetylphenyl)-3-(6-chloropyridin-3-yl)urea]", "IC50": "< 2000"}, {"smiles": "CCc1ccc(NC(=O)Nc2ccccn2)cc1", "note": "[Compound 638, 1-(4-ethylphenyl)-3-pyridin-2-ylurea]", "IC50": "< 2000"}, {"smiles": "CCc1ccc(NC(=O)Nc2ncccc2C)cc1", "note": "[Compound 639, 1-(4-ethylphenyl)-3-(3-methylpyridin-2-yl)urea]", "IC50": "< 2000"}, {"smiles": "CCc1ccc(NC(=O)Nc2cc(C)ccn2)cc1", "note": "[Compound 640, 1-(4-ethylphenyl)-3-(4-methylpyridin-2-yl)urea]", "IC50": "< 2000"}, {"smiles": "CCc1ccc(NC(=O)Nc2ccc(C)cn2)cc1", "note": "[Compound 641, 1-(4-ethylphenyl)-3-(5-methylpyridin-2-yl)urea]", "IC50": "< 2000"}, {"smiles": "CCc1ccc(NC(=O)Nc2cc(OC)ncn2)cc1", "note": "[Compound 642, 1-(4-ethylphenyl)-3-(6-methoxypyrimidin-4-yl)urea]", "IC50": "< 2000"}, {"smiles": "CCOC(=O)c1cccc(NC(=O)Nc2ccc(C)cc2)c1", "note": "[Compound 643, ethyl 3-({[(4-methylphenyl)amino]carbonyl}amino)benzoate]", "IC50": "< 2000"}, {"smiles": "CCOC(=O)c1cccc(NC(=O)Nc2ccc(F)cc2)c1", "note": "[Compound 644, ethyl 3-({[(4-fluorophenyl)amino]carbonyl}amino)benzoate]", "IC50": "< 2000"}, {"smiles": "CCc1ccc(NC(=O)Nc2cccc(C(=O)OC)c2)cc1", "note": "[Compound 645, methyl 3-({[(4-ethylphenyl)amino]carbonyl}amino)benzoate]", "IC50": "< 2000"}]}]}
